Test results as given in patent publication US9517275B2, “Targeted therapy for the prevention of restenosis in the cardiovascular system” (Northwestern University, priority 2013, dated 2016).
Residues, ends and D or L forms follow the SMILES beside them. *: point of attachment. Lauroyl = CCCCCCCCCCCC(=O)*

Assays:
[1] = Protocol: Adult male Sprague-Dawley rats weighing 350 to 400 g underwent midline neck incision with exposure of internal jugular vein. Targeted nanofiber 2.5 mg was dissolved in 1.0 mL of HBBS and injected within the internal jugular vein using 25 G needle. After complete injection, needle was withdrawn, pressure held at the injection site for 1 minute and the neck incision was closed. Rats were euthanized at 10, 15, 30, 60 min, 4, 16 hours, 4 and 6 days post injection and viscera (liver, lung, kidney and spleen) were harvested.
Carotid arteries and viscera were harvested after in-situ perfusion-fixation with PBS (250 mL) and placed in 2% paraformaldehyde overnight.

[2] = Small angle X-ray scattering (SAXS) of nanostructures; type: physicochemical
Protocol: Small angle X-ray scattering (SAXS) experiments were performed at the Advanced Photon Source, Argonne National Laboratory. The X-ray energy (15 keV) was selected using a double-crystal monochromator with a 30 mm offset. Samples were dissolved at a concentration of 5 mM in PBS and placed in 1.5 mm quartz capillary tubes. The typical incident X-ray flux on the sample was ˜1×10^12 photons/s with a 0.2×0.3 mm^2 collimator, and samples were exposed for 4 s. The 1D scattering profiles were obtained by azimuthal integration of the 2D patterns, with scattering from the capillaries and PBS buffer subtracted as background. Scattering profiles were then plotted on a relative scale as a function of the scattering vector q=(4π/λ) sin(θ/2), where θ is the scattering angle.

CCCCCCCCCCCC(=O)NCCCC[C@H](NC(=O)[C@@H](NC(=O)[C@@H](NC(=O)[C@H](C)NC(=O)[C@H](C)NC(=O)[C@H](CCCCN)NC(=O)[C@H](CCCCN)NC(=O)[C@H](CS)NC(=O)[C@H](CCCCN)NC(=O)[C@@H]1CCCN1C(=O)[C@H](CC(C)C)NC(=O)[C@H](Cc1c[nH]c2ccccc12)NC(=O)[C@@H](NC(=O)[C@H](CC(C)C)NC(=O)[C@@H](N)CCCCN)C(C)C)C(C)C)C(C)C)C(=O)O [targeted nanofiber, KLVWLPKCK2A2V2K(C12)] (H-KLVWLPKCKKAAVVK(Lauroyl)-OH; N-terminus and C-terminus assumed)
earliest time fluorescence present within the kidneys ([1]; 2.5 mg internal jugular vein): 10 min | fluorescence in the kidneys over time ([1]; 2.5 mg internal jugular vein): increasing fluorescence | fluorescence in the liver over time ([1]; 2.5 mg internal jugular vein): Decreasing fluorescence | latest time fluorescence present within the kidneys ([1]; 2.5 mg internal jugular vein): 6 days | fluorescence within the liver and kidneys ([1]; 2.5 mg internal jugular vein, 10 min to 6 days): Fluorescence was observed | fluorescence in the brain, heart, intestine and lungs ([1]; any of the time points): no fluorescence detected

KLWVLPKC
self-assembly by SAXS [2]: did not display any evidence of self-assembly
